Source: the supplement of paper PMC10307832

Assays:
Experiment in all cases: relative viability (nuclei count vs DMSO), 5 days (fraction); higher = more cells survive
[1] = compound: CC1=NN=C(O1)C2=NN=C(C=C2)N3CCC(CC3)OC4=C(C=CC(=C4)F)Cl + Cc1nc(Nc2ncc(C(=O)Nc3c(C)cccc3Cl)s2)cc(N2CCN(CCO)CC2)n1 [Dasatinib] (partner 0.075 µM)
Summary of the method: (§1)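 One day after seeding in 1536-well plates, lung cancer cell lines were dosed by pin tool. Dosing was either single-drug or a fixed anchor-drug dose plus five library-drug doses (not always all listed) in √10 steps. After 5 days, nuclei were stained in one fix-and-stain step and counted on 4× images, and relative viability is the nuclei count of treated wells over that of vehicle wells, given as the median of duplicate plates.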

Tosedostat + Decitabine = compound: CC(C)C[C@@H](C(=O)N[C@H](C(=O)OC1CCCC1)c1ccccc1)[C@H](O)C(=O)NO [Tosedostat] + Nc1ncn([C@H]2C[C@H](O)[C@@H](CO)O2)c(=O)n1 [Decitabine] (partner 2 µM)
Summary of the method: as §1

[2] = compound: CC1=NN=C(O1)C2=NN=C(C=C2)N3CCC(CC3)OC4=C(C=CC(=C4)F)Cl + CCNC(=O)c1noc(-c2cc(C(C)C)c(O)cc2O)c1-c1ccc(CN2CCOCC2)cc1 [Luminespib] (partner 0.01 µM)
Summary of the method: as §1

Tosedostat + Bortezomib = compound: CC(C)C[C@@H](C(=O)N[C@H](C(=O)OC1CCCC1)c1ccccc1)[C@H](O)C(=O)NO [Tosedostat] + CC(C)C[C@H](NC(=O)[C@H](Cc1ccccc1)NC(=O)c1cnccn1)B(O)O [Bortezomib] (partner 0.002 µM)
Summary of the method: as §1

Cell Line	relative viability ([1]; first compound 0.253 µM)	relative viability ([1]; first compound 0.8 µM)	relative viability ([1]; first compound 2.53 µM)	relative viability ([1]; first compound 8 µM)	relative viability (Tosedostat + Decitabine; first compound 0.02 µM)	relative viability (Tosedostat + Decitabine; first compound 0.06325 µM)	relative viability (Tosedostat + Decitabine; first compound 0.2 µM)	relative viability (Tosedostat + Decitabine; first compound 0.6325 µM)	relative viability (Tosedostat + Decitabine; first compound 2 µM)	relative viability ([2]; first compound 0.253 µM)	relative viability ([2]; first compound 0.8 µM)	relative viability ([2]; first compound 2.53 µM)	relative viability ([2]; first compound 8 µM)	relative viability (Tosedostat + Bortezomib; first compound 0.02 µM)	relative viability (Tosedostat + Bortezomib; first compound 0.06325 µM)	relative viability (Tosedostat + Bortezomib; first compound 0.2 µM)	relative viability (Tosedostat + Bortezomib; first compound 0.6325 µM)	relative viability (Tosedostat + Bortezomib; first compound 2 µM)
NCI-H460	0.175	0.185	0.214	0.193	0.514	0.466	0.457	0.468	0.528	0.0224	0.0328	0.0243	0.0233	1.14	0.898	1.09	0.926	1.32
NCI-H520	0.258		0.211	0.222	0.524	0.439	0.414	0.459	0.495	0.207	0.217	0.199	0.2	0.348	0.519	0.508	0.449	0.76
NCI-H596	0.558	0.602	0.647	0.506	1.3	1.13	1.03	0.879	0.838	0.938	0.849	0.945	0.889	1.32	1.19	1	1.12	1.04
NCI-H647	0.196	0.222	0.207	0.178	0.332	0.367	0.286	0.404	0.313	0.171	0.128	0.16	0.263	1.03	0.947	0.788	1.07	0.829
NCI-H650	0.496	0.436	0.419	0.445	0.291	0.339	0.316	0.319	0.262	0.77	0.685	0.703	0.793	0.958	0.894	0.562	0.685	0.504
NCI-H661	0.785	0.608		0.68	0.637	0.547	0.535	0.522	0.512	0.785	0.751	0.714	0.549	0.846	0.69	0.894	0.63	0.768
NCI-H727	0.328		0.441	0.384	0.88	0.9	0.868	0.794	0.754	0.531		0.6	0.629	0.884	0.771	0.804	0.613	0.613
NCI-H838	0.299	0.32	0.301	0.331	0.483	0.449	0.431	0.421	0.392	0.257	0.255	0.348	0.226	0.82	0.852	0.646	0.918	1.1
NCI-H1355	0.314	0.526	0.781	0.585	0.347	0.357	0.315	0.332	0.305	0.538	0.582	0.601	0.623	1.2	1.14	1.09	0.987	1.07
